# Measurements as given in US20150265621A1, “Treating Bronchiectasis With Doxofylline and Erdosteine” (Alitair Pharmaceuticals, Inc., priority 2014, published 2015).
# Where two headings read alike, the source gives them in different places.
# How the values were obtained:
# chronic asthma subjects = conditions: randomized clinical study; cited from earlier work
# [1] = system: patients with theophylline overdose; conditions: cited from earlier work
# CF patients = conditions: intravenous; cited from earlier work
# [2] = system: bronchiectasis patients with mucus hypersecretion; test: Summary (mean, weighted mean) of the three erdosteine bronchiectasis studies; format: in vivo, human; conditions: erdosteine 300 mg BID + PCT
# Protocol: There are three published studies showing effectiveness of erdosteine in the treatment of bronchiectasis: Crisafulli et al (2007), Buquan and Xinke (2011) and Yipin (2012). The three studies have a total of 170 subjects, 85 of whom received standard care consisting of Percussive Chest Therapy (PCT) for up to 15 days. The remaining 85 received PCT plus treatment with erdosteine 300 mg BID for the same length of time. […] FEV1, FVC, PEF, MIP, MEP, PaO2 and PaCO2 measured according to test methods described by Mason et al, 2005. FEV1=forced expiratory volume in one second, measured in liters. FVC=forced vital capacity, total amount air the patient can expel in one breath, measured in liters. PEF=peak expiratory flow, measure in liters per second. MIP=maximum inhalation pressure. MEP=Maximum expiratory pressure. PaO2=partial pressure of oxygen. PaCO2=partial pressure of carbon dioxide. […] Again, the results are similar in terms of order of magnitude and consistent in showing an incremental benefit to adding erdosteine to PCT in bronchiectasis patients. […] The use of erdosteine with PCT produces significant and clinically meaningful changes in the respiratory functioning of patients with bronchiectasis and mucus hypersecretion as compared to PCT alone.
# [3] = system: bronchiectasis patients with mucus hypersecretion; conditions: Crisafulli; erdosteine 300 mg BID + PCT up to 15 days; 15 subjects; cited from earlier work
# [4] = system: bronchiectasis patients with mucus hypersecretion; conditions: Yipin; erdosteine 300 mg BID + PCT up to 15 days; 40 subjects; cited from earlier work
# [5] = system: bronchiectasis patients with mucus hypersecretion; conditions: Buquan; erdosteine 300 mg BID + PCT up to 15 days; 30 subjects; cited from earlier work
# [6] = system: bronchiectasis patients with mucus hypersecretion; conditions: cited from earlier work
# [7] = system: adults with CT scan confirmed bronchiectasis; conditions: nebulized, vs placebo, cited from earlier work
# [8] = weighted by % total subjects (18%, 47%, 35%)
compound,measurement,setting,value
Cn1c(=O)c2[nH]cnc2n(C)c1=O [theophylline],subjects dropped out of the study due to side effects,chronic asthma subjects,31%
same,patients treated in an emergency setting for overdose who die,[1],Ten
same,effect on FEV1 and FEF 0.75,CF patients,positive results
Cn1c(=O)c2c(ncn2CC2OCCO2)n(C)c1=O [doxofylline],effectiveness in treating chronic asthma compared to theophylline,chronic asthma subjects,as effective as theophylline
same,subjects dropped out of the study due to side effects,chronic asthma subjects,11%
"O=C(O)CSCC(=O)NC1CCSC1=O (stereo not shown) [Erdo, erdosteine]","FEV1 change vs baseline, Mean",[2]; mean of the three studies,0.2 L
same,"FVC change vs baseline, Mean",[2]; mean of the three studies,0.3 L
same,"MEP change vs baseline, Mean",[2]; mean of the three studies,9.3 Kpa
same,"MIP change vs baseline, Mean",[2]; mean of the three studies,9 kPa
same,"PEF change vs baseline, Mean",[2]; mean of the three studies,0.3 L/s
same,"PaCO2 change vs baseline, Mean",[2]; mean of the three studies,1.3 mm Hg
same,"PaO2 change vs baseline, Mean",[2]; mean of the three studies,5.5 mm Hg
same,"FEV1 change vs baseline, Wtd Mean Diff",[2]; [8],0.26 L
same,"FVC change vs baseline, Wtd Mean Diff",[2]; [8],0.36 L
same,"MEP change vs baseline, Wtd Mean Diff",[2]; [8],9.69 Kpa
same,"MIP change vs baseline, Wtd Mean Diff",[2]; [8],9.09 kPa
same,"PEF change vs baseline, Wtd Mean Diff",[2]; [8],0.35 L/s
same,"PaCO2 change vs baseline, Wtd Mean Diff",[2]; [8],1.35 mm Hg
same,"PaO2 change vs baseline, Wtd Mean Diff",[2]; [8],5.70 mm Hg
same,FEV1 change vs baseline,[3],0.2 L
same,FVC change vs baseline,[3],0.3 L
same,MEP change vs baseline,[3],8.4 Kpa
same,MIP change vs baseline,[3],8.9 kPa
same,PEF change vs baseline,[3],0.3 L/s
same,PaCO2 change vs baseline,[3],0.1 mm Hg
same,PaO2 change vs baseline,[3],5.1 mm Hg
same,FEV1 change vs baseline,[4],0.34 L
same,FVC change vs baseline,[4],0.43 L
same,MEP change vs baseline,[4],11.3 Kpa
same,MIP change vs baseline,[4],9.9 kPa
same,PEF change vs baseline,[4],0.4 L/s
same,PaCO2 change vs baseline,[4],2.6 mm Hg
same,PaO2 change vs baseline,[4],6.3 mm Hg
same,FEV1 change vs baseline,[5],0.19 L
same,FVC change vs baseline,[5],0.31 L
same,MEP change vs baseline,[5],8.2 Kpa
same,MIP change vs baseline,[5],8.1 kPa
same,PEF change vs baseline,[5],0.3 L/s
same,PaCO2 change vs baseline,[5],0.3 mm Hg
same,PaO2 change vs baseline,[5],5.2 mm Hg
same,effect of erdosteine with PCT compared to PCT alone on respiratory functioning,[6],significantly enhances the effect of PCT alone
NC[C@H]1O[C@H](O[C@H]2[C@H](O)[C@@H](O[C@H]3O[C@H](CO)[C@@H](O)[C@H](N)[C@H]3O)[C@H](N)C[C@@H]2N)[C@H](N)C[C@@H]1O [tobramycin],effect on FEV1,[7]; after four weeks of treatment,no effect
same,eradication of P. aeruginosa,[7]; four weeks of treatment,significant effect
